# Measured values published in PubChem BioAssay (NCI).
#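 Method: 48-hour compound exposure of cells in 96-well plates, five concentrations, linear interpolation of endpoints. At the GI50, growth is halved. Definition used: TGI = concentration required for complete inhibition of growth.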
# Legend:
# Assay in all cases: growth of human tumour cells (NCI), 48 h
# [1] = test system: LOX IMVI melanoma
# [2] = test system: UO-31 renal
# [3] = test system: TK-10 renal
# [4] = test system: SF-268 CNS
# [5] = test system: OVCAR-3 ovarian
# [6] = test system: HCC-2998 colon
# [7] = test system: M14 melanoma
# [8] = test system: HL-60(TB) leukemia
# [9] = test system: DMS 273 small cell lung
# [10] = test system: UACC-257 melanoma
# [11] = test system: NCI-H23 lung
# [12] = test system: SK-MEL-5 melanoma
# [13] = test system: KM20L2 colon
# [14] = test system: HT29 colon
# [15] = test system: HOP-62 NSCLC
# [16] = test system: RPMI-8226 leukemia
# [17] = test system: MALME-3M melanoma
# [18] = test system: U251 CNS
# [19] = test system: CCRF-CEM leukemia
# [20] = test system: SNB-19 CNS
# [21] = test system: M19-MEL melanoma
# [22] = test system: COLO 205 colon
# [23] = test system: 786-0 renal
# [24] = test system: SR leukemia
# [25] = test system: ACHN renal
# [26] = test system: CAKI-1 renal
# [27] = test system: OVCAR-8 ovarian
# [28] = test system: SW-620 colon
# [29] = test system: SK-OV-3 ovarian
# [30] = test system: SF-295 CNS
# [31] = test system: HCT-15 colon
# [32] = test system: SK-MEL-28 melanoma
# [33] = test system: NCI-H226 lung
# [34] = test system: HOP-92 NSCLC
# [35] = test system: A549 NSCLC
# [36] = test system: MOLT-4 leukemia
# [37] = test system: A498 renal
# [38] = test system: HCT-116 colon
# [39] = test system: HOP-18 NSCLC
# [40] = test system: DMS 114 small cell lung
# [41] = test system: DLD-1 colon
# [42] = test system: OVCAR-4 ovarian
# [43] = test system: SN12C renal
# [44] = test system: UACC-62 melanoma
# [45] = test system: OVCAR-5 ovarian
# [46] = test system: NCI-H460 lung
# [47] = test system: K-562 leukemia
# [48] = test system: IGROV1 ovarian
# [49] = test system: LXFL 529 NSCLC
# [50] = test system: EKVX NSCLC
# [51] = test system: RXF 393 renal
# [52] = test system: KM12 colon
# [53] = test system: SNB-78 CNS
# [54] = test system: NCI-H522 lung
# [55] = test system: SK-MEL-2 melanoma
# [56] = test system: XF 498 CNS
# [57] = test system: SF-539 CNS
# [58] = test system: SNB-75 CNS
smiles,measurement,setting,value
O=C(O)C12C=CC(C1)c1ccccc12 (stereo not drawn),TGI,[1],> 100 µM
same,TGI,[2],> 100 µM
same,TGI,[3],> 100 µM
same,TGI,[4],> 100 µM
same,TGI,[5],> 100 µM
same,TGI,[6],> 100 µM
same,TGI,[7],> 100 µM
same,TGI,[8],> 100 µM
same,TGI,[9],> 100 µM
same,TGI,[10],> 100 µM
same,TGI,[11],> 100 µM
same,TGI,[12],> 100 µM
same,TGI,[13],> 100 µM
same,TGI,[14],> 100 µM
same,TGI,[15],> 100 µM
same,TGI,[16],> 100 µM
same,TGI,[17],> 100 µM
same,TGI,[18],> 100 µM
same,TGI,[19],> 100 µM
same,TGI,[20],> 100 µM
same,TGI,[21],> 100 µM
same,TGI,[22],> 100 µM
same,TGI,[23],> 100 µM
same,TGI,[24],> 100 µM
same,TGI,[25],> 100 µM
same,TGI,[26],> 100 µM
same,TGI,[27],> 100 µM
same,TGI,[28],> 100 µM
same,TGI,[29],> 100 µM
same,TGI,[30],> 100 µM
same,TGI,[31],> 100 µM
same,TGI,[32],> 100 µM
same,TGI,[33],> 100 µM
same,TGI,[34],> 100 µM
same,TGI,[35],> 100 µM
same,TGI,[36],> 100 µM
same,TGI,[37],> 100 µM
same,TGI,[38],> 100 µM
same,TGI,[39],> 100 µM
same,TGI,[40],> 100 µM
same,TGI,[41],> 100 µM
same,TGI,[42],> 100 µM
same,TGI,[43],> 100 µM
same,TGI,[44],> 100 µM
same,TGI,[45],> 100 µM
same,TGI,[46],> 100 µM
same,TGI,[47],> 100 µM
same,TGI,[48],> 100 µM
same,TGI,[49],> 100 µM
CCSc1c2ccccc2nc2c(OC)ccc(OC)c12,TGI,[50],> 100 µM
same,TGI,[2],59.8 µM
same,TGI,[3],85 µM
same,TGI,[4],55.6 µM
same,TGI,[7],95.8 µM
same,TGI,[8],52.9 µM
same,TGI,[9],47.9 µM
same,TGI,[10],42.8 µM
same,TGI,[51],33.2 µM
same,TGI,[14],63.4 µM
same,TGI,[15],97.2 µM
same,TGI,[52],63.5 µM
same,TGI,[18],44.9 µM
same,TGI,[19],> 100 µM
same,TGI,[20],72.4 µM
same,TGI,[21],37.1 µM
same,TGI,[53],56.7 µM
same,TGI,[24],62.5 µM
same,TGI,[27],44.9 µM
same,TGI,[29],63.2 µM
same,TGI,[30],66.2 µM
same,TGI,[32],40 µM
same,TGI,[33],55.7 µM
same,TGI,[34],56.5 µM
same,TGI,[35],> 100 µM
same,TGI,[36],73 µM
same,TGI,[37],81.7 µM
same,TGI,[38],37.9 µM
same,TGI,[44],37.9 µM
same,TGI,[54],> 100 µM
same,TGI,[45],97.1 µM
same,TGI,[46],41.7 µM
same,TGI,[48],63.4 µM
CCNC1CC(n2cc(C)c(=O)[nH]c2=O)OC1CO (stereo not drawn),TGI,[2],> 100 µM
same,TGI,[55],> 100 µM
same,TGI,[56],> 100 µM
same,TGI,[4],> 100 µM
same,TGI,[6],> 100 µM
same,TGI,[7],> 100 µM
same,TGI,[8],> 100 µM
same,TGI,[9],> 100 µM
same,TGI,[11],> 100 µM
same,TGI,[57],> 100 µM
same,TGI,[15],> 100 µM
same,TGI,[16],> 100 µM
same,TGI,[17],> 100 µM
same,TGI,[19],> 100 µM
same,TGI,[21],> 100 µM
same,TGI,[22],> 100 µM
same,TGI,[23],> 100 µM
same,TGI,[53],> 100 µM
same,TGI,[24],> 100 µM
same,TGI,[26],> 100 µM
same,TGI,[58],> 100 µM
same,TGI,[29],> 100 µM
same,TGI,[32],> 100 µM
same,TGI,[33],> 100 µM
same,TGI,[34],> 100 µM
same,TGI,[36],> 100 µM
same,TGI,[37],> 100 µM
same,TGI,[38],> 100 µM
same,TGI,[40],> 100 µM
same,TGI,[41],> 100 µM
same,TGI,[42],> 100 µM
same,TGI,[43],> 100 µM
same,TGI,[44],> 100 µM
same,TGI,[54],> 100 µM
same,TGI,[46],> 100 µM
same,TGI,[47],> 100 µM
same,TGI,[48],> 100 µM
same,TGI,[49],> 100 µM
O=C([O-])C([O-])C([O-])C(=O)[O-].[Co+3].c1ccc(-c2ccnc3c2ccc2c(-c4ccccc4)ccnc23)cc1.c1ccc(-c2ccnc3c2ccc2c(-c4ccccc4)ccnc23)cc1.c1ccc(-c2ccnc3c2ccc2c(-c4ccccc4)ccnc23)cc1,TGI,[2],0.0823 µM
same,TGI,[13],0.291 µM
same,TGI,[24],0.207 µM
same,GI50,[26],0.0339 µM
same,TGI,[26],0.235 µM
same,TGI,[58],> 100 µM
same,TGI,[32],1.96 µM
same,TGI,[33],0.27 µM
same,TGI,[41],1.6 µM
same,TGI,[44],0.407 µM
same,TGI,[54],0.128 µM
same,TGI,[45],1.65 µM
Cc1cccc(C=NC23CC4CC(CC(C4)C2)C3)c1,TGI,[1],> 100 µM
same,TGI,[50],> 100 µM
same,TGI,[2],> 100 µM
same,TGI,[55],> 100 µM
same,TGI,[3],> 100 µM
same,TGI,[56],> 100 µM
same,TGI,[4],> 100 µM
same,TGI,[5],> 100 µM
same,TGI,[6],> 100 µM
same,TGI,[7],> 100 µM
same,TGI,[8],> 100 µM
same,TGI,[9],> 100 µM
same,TGI,[10],> 100 µM
same,TGI,[11],> 100 µM
same,TGI,[51],> 100 µM
same,TGI,[12],> 100 µM
same,TGI,[57],> 100 µM
same,TGI,[13],> 100 µM
same,TGI,[14],> 100 µM
same,TGI,[15],> 100 µM
same,TGI,[52],> 100 µM
same,TGI,[16],> 100 µM
same,TGI,[17],> 100 µM
same,TGI,[18],> 100 µM
same,TGI,[19],> 100 µM
same,TGI,[20],> 100 µM
same,TGI,[21],> 100 µM
same,TGI,[22],> 100 µM
same,TGI,[23],> 100 µM
same,TGI,[53],> 100 µM
same,TGI,[25],> 100 µM
same,TGI,[26],> 100 µM
same,TGI,[58],> 100 µM
same,TGI,[27],> 100 µM
same,TGI,[28],> 100 µM
same,TGI,[29],> 100 µM
same,TGI,[30],> 100 µM
same,TGI,[31],> 100 µM
same,TGI,[32],> 100 µM
same,TGI,[33],> 100 µM
same,TGI,[34],> 100 µM
same,TGI,[35],> 100 µM
same,TGI,[36],> 100 µM
same,TGI,[37],> 100 µM
same,TGI,[38],> 100 µM
same,TGI,[39],> 100 µM
same,TGI,[40],> 100 µM
same,TGI,[41],> 100 µM
same,TGI,[42],> 100 µM
same,TGI,[43],> 100 µM
same,TGI,[44],> 100 µM
same,TGI,[54],> 100 µM
same,TGI,[45],> 100 µM
same,TGI,[46],> 100 µM
same,TGI,[47],> 100 µM
same,TGI,[48],> 100 µM
